The source of these data is PubChem BioAssay (NCI).

What all share (experiment): growth of human tumour cells (NCI), 48 h
The test system of assay [1] is OVCAR-4 ovarian.
Assay [2] deals with SF-268 CNS.
For assay [3], the system named is EKVX NSCLC.
Assay [4] relates to NCI-H226 lung.
Assay [5] has as its system NCI-H522 lung.
The subject of assay [6] is A498 renal.
Assay [7] relates to NCI-H460 lung.
In assay [8] the test system is ACHN renal.
Assay [9] relates to KM12 colon.
In assay [10] the test system is RXF 393 renal.

Structures are written as SMILES.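 Test compounds were applied to cells in 96-well plates for 48 hours at 5 doses. Abbreviation: GI50, concentration required for 50% inhibition of growth. TGI is the concentration that stops growth completely.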

On to `C[Si](C)(C)/C(I)=C/CO`, for which the TGI in [1] is > 100 µM; in assay [2], 94.1 µM; in assay [3], 71.7 µM; in assay [4] it was 39.3 µM; in assay [5], 34.5 µM; in [6], > 100 µM. Also, the values for the TGI in assay [7], in [8] and in assay [9] were 46.3 µM, 46.4 µM and 60.8 µM, respectively.

Take `COC(=O)C1=C(C(=O)OC)C2=S(SC3=C2CCCC3)S1` (centres undefined): the TGI in [1] was > 100 µM; in [2], > 100 µM; in assay [3], > 100 µM; in [5], 11.3 µM; in assay [10] it was 32.3 µM; in assay [7], > 100 µM. For the same compound, the TGI is > 100 µM in [8] and 97.6 µM in [9].

Take `CC1(Br)Cc2ccccc2C1=O` (centres undefined): the GI50 is 2.14 µM in assay [1], 0.318 µM in assay [5] and > 100 µM in [7]. The TGI worked out at 8.43 µM in assay [1]; 20.2 µM in [2]; 11.2 µM in assay [3]; 5.93 µM in [4]; 1.41 µM in assay [5]; 57.2 µM in assay [6]. In addition, the TGI in [7] was > 100 µM; in assay [8] it was 16.8 µM; in [9], 25.8 µM.

As for `O=C1c2cccc3cccc(c23)C(=O)N1CCCCCN1CCN(CCCCCOc2ccc(-c3nc4ccc(N5CCOCC5)cc4[nH]3)cc2)CC1`, the GI50 in assay [1] was 7.04 µM; in assay [2], 22.4 µM; in [3] it was > 47.1 µM; in assay [4], 7.24 µM; in assay [5], > 49 µM; in assay [6], > 74.9 µM. In addition, the results for the GI50 in [7], in assay [8] and in [9] were 16.8 µM, > 35.7 µM and 2.15 µM, respectively. Also, the TGI is 28.3 µM in assay [1]; 43.2 µM in assay [2]; > 74.6 µM in assay [3]; 30.2 µM in [4]; > 68.5 µM in assay [5]; > 100 µM in assay [6]. For the same compound, the TGI is 30.8 µM in assay [7], > 56.1 µM in [8] and 4.29 µM in assay [9].

Take `CN(C)CCNC(=O)c1cccc2c(Nc3ccc(S(=O)(=O)N=C(N)N)cc3)c3ccccc3nc12`: the TGI is 30 µM in assay [1]; 26.6 µM in assay [2]; 55.3 µM in assay [3]; 10.1 µM in assay [4]; 17.3 µM in assay [5]; > 100 µM in assay [10]. Moreover, the TGI was 18.7 µM in [7], 61.1 µM in assay [8] and > 100 µM in assay [9].

In the case of `Cc1cc(N(CCCNc2ccnc3cc(Cl)ccc23)Cc2ccc3c(c2)OCO3)nc(N2CCOCC2)n1`, the GI50 was 0.402 µM in [1]; 0.304 µM in assay [2]; 0.299 µM in [3]; 0.185 µM in assay [5]; 0.202 µM in assay [10]; 0.318 µM in [7]. Besides, in [9], the GI50 is 0.34 µM. The TGI was 32.8 µM in assay [1]; 24.7 µM in assay [2]; > 100 µM in [3]; 0.477 µM in assay [5]; 0.53 µM in assay [10]; 14.1 µM in assay [7]. Further, in assay [9], the TGI was 25.7 µM.

Regarding `Cn1cnnc1Sc1c([N+](=O)[O-])ncn1C`, the TGI was > 100 µM in assay [1]; > 100 µM in assay [2]; > 100 µM in assay [3]; > 100 µM in assay [4]; 25.6 µM in assay [5]; > 100 µM in assay [6]. The TGI in assay [7], in assay [8] and in [9] was > 100 µM in each case.

In the case of `COc1cc(/C=C\c2cc(OC)c(OC)c(OC)c2)cc(N/C=C\C(=O)c2cc(OC)c(OC)c(OC)c2)c1OC`, the GI50 in assay [1] is 2.91 µM; in assay [2] it was 6.04 µM; in assay [4], 5.46 µM; in [6], 2.4 µM; in assay [7], 3.93 µM; in [8], 3.99 µM. For the same compound, in assay [9], the GI50 was 3.21 µM. In addition, the TGI is > 100 µM in assay [1]; > 100 µM in [2]; > 100 µM in [4]; 7.89 µM in assay [6]; > 100 µM in [7]; > 100 µM in assay [8]. In addition, the TGI in assay [9] was > 100 µM.

For `CC(C)=CCc1cc2c(cc1O)OC[C@H]1c3cc4c(cc3O[C@@H]21)OCO4`, the TGI in [1] is > 100 µM; in assay [2] it was > 100 µM; in [3], 76.9 µM; in [4] it was 69.7 µM; in assay [5], > 100 µM; in [10], 48.7 µM. Further, the TGI in [7] is 44.5 µM; in assay [8] it was > 100 µM; in [9], > 100 µM.

For `Oc1ccc(Nc2c3ccccc3nc3occ(Cl)c23)cc1`, the GI50 was 7.44 µM in [1]; 4.26 µM in [2]; 14.8 µM in [3]; 3.12 µM in assay [4]; 2.37 µM in [5]; 3.83 µM in assay [10]. Further, the GI50 in [7] is 3.68 µM; in assay [8], 15.2 µM; in assay [9], 2.78 µM. The TGI in assay [1] was > 100 µM; in assay [2], > 100 µM; in [3] it was > 100 µM; in assay [4] it was 13.5 µM; in [5], 8.32 µM; in [10], 70.3 µM. The figures for the TGI in assay [7], in [8] and in [9] were 28.9 µM, > 100 µM and 17 µM, respectively.

Take `Clc1nc(Cl)nc(Nc2cccc3ccccc23)n1`: the GI50 in [1] is > 100 µM; in assay [2], > 100 µM; in assay [4] it was > 100 µM; in [6], > 100 µM; in [7], > 100 µM; in assay [8], 92.5 µM. Besides, in assay [9], the GI50 is 93.7 µM. Moreover, the TGI in assay [1], in [2], in [4], in assay [6], in assay [7] and in assay [8] was > 100 µM throughout. Besides, the TGI in assay [9] was > 100 µM.
